# Measurements published in patent US5312816A, “Method of combatting osteoporosis in mammalian subjects, utilizing organic boron compounds” (priority 1993, dated 1994).
# Columns and labels:
# in vivo = conditions: mouse, Table 1, N=6
# Protocol: Amine borane compounds (0 to 100 mg/kg) were administered to CF1 male mice as a single injection with six mice for each dosage. Mice were weighed daily and the number of deaths was recorded each day for a 14 day period. The LD50 value was determined by the procedure of S.C. Gad and C.S. Weil, "Statistics for Toxicologists" in Principles and Methods of Toxicology, A.W. Hayes, Ed., 2nd Edition, P 435-483 Raven Press, New York 1982.
# Cf1 male mice [1] = assay: Anti-inflammatory screen, Winter's test, 2% carrageenan hind foot; type: in vivo; conditions: Table 1; drugs 8 or 10 mg/kg I.P. 2X; Indomethacin 10 mg/kg
# Protocol: Anti-inflammatory Screen- Cf1 - male mice-Winter's Test 2% carrageenan S.C. plantar surface of hind foot, drugs administered @8 or 10 mg/kg I.P. 2X
# Winter, C.A., et al, Proc. Soc.
# Sprague Dawley Rats = assay: Anti-inflammatory activity in Sprague Dawley rats; type: in vivo; conditions: Table IV; 8 mg/kg I.P.
# Cf1 male mice [2] = assay: Writhing reflex, 0.6% acetic acid; type: in vivo; conditions: Table 1; Indomethacin 10 mg/kg
# Protocol: Writhing reflex- Cf1 -male mice- 0.6% acetic acid I.P. drugs administered @20 mg/kg/ I.P. 20 min. later - the # of stretches/10 min.
# Hendershot, L.C., et al, J.
# Sprague Dawley male rats [3] = assay: Chronic adjuvant arthritis screen, Mycobacterium butyricum; type: in vivo; conditions: Table 1; Indomethacin 10 mg/kg
# Sprague Dawley male rats [4] = assay: Anti-pleurisy screen, Evans blue + carrageenan; type: in vivo; conditions: Table 1
# Acid phosphatase [5] = assay: Mouse hepatic lysosomal acid phosphatase activity; type: biochemical; conditions: for IC50: Table V, mouse hepatic, 60 min incubation
# Text: (§1) 1. Cf1 male mouse hepatic 10% homogenates in 0.25M sucrose+0.001MEDTA,pH 7.2.
# (§2) Lysosomal Enzymes - free and total [triton X-100].
# (§3) 1. Acid phosphatase -beta glycerol-3-phosphate, pH 5.0, released IP 720 nm.
# Acid phosphatase activity -
# Cathepsin D [6] = target: T1, Cathepsin D (Mus musculus, UniProt P18242); assay: Mouse hepatic lysosomal cathepsin D activity; type: biochemical; conditions: for IC50: read-out: Cathepsin D IC50, Table V, mouse hepatic, 60 min incubation
# T1 construct: azocasein assay pH 5.0
# Text: as §1, §2
# (§4) 2. Acid Cathepsin D -azocasein-pH 5.0, hydrolytic azo-peptide produce 366 nm.
# Cathepsin azo casein activity -
# Acid phosphatase [7] = assay: Rat PMNs acid phosphatase activity; type: cell-based; conditions: 5 × 10^-6 M, N=6; 5 µM
# Text: (§5) 2. PMNs-polymorphonuclear neutrophils-rat peritoneal cavity 0.5% oyster glycogen.
# as §3
# Cathepsin [8] = target: T2, Cathepsin (Rattus norvegicus, UniProt P24268); assay: Rat PMNs cathepsin activity; type: cell-based; conditions: pH 5; 5 × 10^-6 M, N=6; read-out: Rat PMNs Cathep.
# T2 construct: azocasein assay pH 5.0
# Text: as §5, §4
# cAMP = assay: PMNs cAMP levels, Gilman's radioimmune assay; type: cell-based, rat; conditions: 5 × 10^-6 M, N=6
# Text: as §5
# cAMP levels Gilman's radioimmune assay. ^3 H(G)Cyclic-3', 5'-adenosine monophosphate.
# Prostaglandin synthetase = target: T3, Prostaglandin synthetase (Bos taurus, UniProt O62664); assay: Prostaglandin synthetase (cyclooxygenase), purified beef seminal vesicle; type: biochemical
# T3 construct: Prostaglandin synthetase purified beef seminal vesicle; from tissue
# T3 sequence (O62664 25-600): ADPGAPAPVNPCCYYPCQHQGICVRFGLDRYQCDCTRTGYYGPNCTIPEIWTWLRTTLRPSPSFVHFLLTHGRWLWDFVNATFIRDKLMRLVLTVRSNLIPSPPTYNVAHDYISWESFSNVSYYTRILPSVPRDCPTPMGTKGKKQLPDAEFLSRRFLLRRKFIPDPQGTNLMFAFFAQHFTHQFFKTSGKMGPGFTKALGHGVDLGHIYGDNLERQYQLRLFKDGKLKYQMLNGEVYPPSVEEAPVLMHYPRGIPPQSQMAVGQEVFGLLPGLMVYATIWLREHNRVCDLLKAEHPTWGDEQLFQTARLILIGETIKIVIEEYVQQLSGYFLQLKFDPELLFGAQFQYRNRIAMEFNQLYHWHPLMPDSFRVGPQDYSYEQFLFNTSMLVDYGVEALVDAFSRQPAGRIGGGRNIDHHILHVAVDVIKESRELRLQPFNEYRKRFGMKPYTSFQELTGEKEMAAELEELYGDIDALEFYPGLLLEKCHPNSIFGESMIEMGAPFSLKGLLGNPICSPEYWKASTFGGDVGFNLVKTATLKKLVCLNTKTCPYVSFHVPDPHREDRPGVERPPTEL
# Text: (§6) Prostaglandin synthetase purified beef seminal vesicle ^3 H arachidonic acid (86.2 Ci/mmol), tlc separation.
# [9] = test system: Hepatic oxidative phosphorylation; assay: Hepatic oxidative phosphorylation, Gilson oxygraph; type: biochemical, mouse; conditions: 10^-6 M; 1 µM
# Text: as §1
# Acid phosphatase [10] = assay: Mouse macrophage acid phosphatase activity; type: cell-based; conditions: read-out: Acid Phosphatase IC50; Table VII; mouse macrophage cultured cells, 60 min incubation
# Aryl sulphatase [11] = assay: Mouse macrophage aryl sulphatase activity; type: cell-based; conditions: read-out: Aryl Sulphatase IC50; Table VII; mouse macrophage cultured cells, 60 min incubation
# Trypsin [12] = assay: Mouse macrophage trypsin (BAEE) activity; type: cell-based; conditions: read-out: Trypsin BAEE IC50; Table VIII; mouse macrophages, 60 min incubation
# Elastase [13] = assay: Mouse macrophage elastase activity; type: cell-based; conditions: read-out: Elastase IC50; Table VIII; mouse macrophages, 60 min incubation
# [14] = test system: Prostaglandin cyclooxygenase; assay: Mouse macrophage prostaglandin cyclooxygenase activity; type: cell-based; conditions: read-out: Prostaglandin Cyclooxygenase IC50; Table VIII; mouse macrophages, 60 min incubation
# Text: 3. Mouse macrophages J774A.1 BALB/c
# as §6
# Trypsin [15] = assay: Human osteoporosis fibroblasts trypsin (BAEE) activity; type: cell-based; conditions: read-out: Trypsin BAEE IC50; Table XI; human osteoporosis fibroblasts, 60 min incubation
# Text: 1. Trypsin- N-benzoyl-L-arginine ethyl ester pH 8.0, hydrolytic product 253 nm.
# Cathepsin D [16] = target: T4, Cathepsin D (Homo sapiens, UniProt P07339); assay: Human osteoporosis fibroblasts cathepsin D (azo-casein) activity; type: cell-based; conditions: read-out: Cathepsin D IC50; Table X; human osteoporosis fibroblasts, DMEM +10% FCS + P/S
# T4 construct: azocasein assay pH 5.0
# Text: Osteoporosis Human Fibroblast-CRL-1140, Be SA1
# Acid phosphatase [17] = assay: Human osteoporosis fibroblasts acid phosphatase activity; type: cell-based; conditions: read-out: Acid Phosphatase IC50; Table X; human osteoporosis fibroblasts
# Text: as §3
# Aryl sulphatase [18] = assay: Human osteoporosis fibroblasts aryl sulphatase activity; type: cell-based; conditions: read-out: Aryl Sulphatase IC50; Table X; human osteoporosis fibroblasts
# Text: 3. Aryl sulphatase- p-nitrocatechol sulfate, pH
# 5. 8 p-nitro-catechol product 510 nm.
# Elastase [19] = assay: Human osteoporosis fibroblasts elastase activity; type: cell-based; conditions: read-out: Elastase IC50; Table XI; human osteoporosis fibroblasts, 60 min incubation
# Text: 2. Elastase- N-succinyl-L-alanyl-L-alanine-p-nitroanilide, pH 8.0, p-nitro anilide 410 nm.
# [20] = test system: Prostaglandin cyclooxygenase; assay: Human osteoporosis fibroblasts prostaglandin cyclooxygenase activity; type: cell-based; conditions: read-out: Prostaglandin Cyclooxygense IC50, Table XI, 60 min incubation
# Cathepsin [21] = assay: Human leukocyte cathepsin; type: cell-based; conditions: read-out: Cathepsin IC50; Table XII; human leukocytes, 60 min incubation
# Text: 5. Human peripheral leukocytes, RPMI-1788
# as §4
# Hydroxyproline = assay: Serum and urine hydroxyproline levels in vivo; conditions: Cf1 male mice, 8 mg/kg/day I.P. 14 days, N=6
# Calcium = assay: Serum and urine calcium levels in vivo; conditions: Cf1 male mice, 8 mg/kg/day I.P. 14 days, N=6
# Phosphorus = assay: Serum and urine inorganic phosphorus levels in vivo; conditions: Cf1 male mice, 8 mg/kg/day I.P. 14 days, N=6
# Cf1 male mice [22] = assay: Writhing reflex, 0.6% acetic acid; type: in vivo; set-up: response vs control in vivo: dose or concentration left out as unconfirmed; conditions: Mus musculus, ip, read-out: Writhing Reflex Cf1 Mice
# 5'-lipoxygenase = target: T5, 5'-lipoxygenase (Mus musculus, UniProt P48999); assay: Mouse hepatic 5'-lipoxygenase activity; type: biochemical
# T5 construct: Cf1 male mouse hepatic 10% homogenates; from tissue; host or cells: CF1 male mouse liver, 10% homogenate
# T5 sequence (P48999 1-674): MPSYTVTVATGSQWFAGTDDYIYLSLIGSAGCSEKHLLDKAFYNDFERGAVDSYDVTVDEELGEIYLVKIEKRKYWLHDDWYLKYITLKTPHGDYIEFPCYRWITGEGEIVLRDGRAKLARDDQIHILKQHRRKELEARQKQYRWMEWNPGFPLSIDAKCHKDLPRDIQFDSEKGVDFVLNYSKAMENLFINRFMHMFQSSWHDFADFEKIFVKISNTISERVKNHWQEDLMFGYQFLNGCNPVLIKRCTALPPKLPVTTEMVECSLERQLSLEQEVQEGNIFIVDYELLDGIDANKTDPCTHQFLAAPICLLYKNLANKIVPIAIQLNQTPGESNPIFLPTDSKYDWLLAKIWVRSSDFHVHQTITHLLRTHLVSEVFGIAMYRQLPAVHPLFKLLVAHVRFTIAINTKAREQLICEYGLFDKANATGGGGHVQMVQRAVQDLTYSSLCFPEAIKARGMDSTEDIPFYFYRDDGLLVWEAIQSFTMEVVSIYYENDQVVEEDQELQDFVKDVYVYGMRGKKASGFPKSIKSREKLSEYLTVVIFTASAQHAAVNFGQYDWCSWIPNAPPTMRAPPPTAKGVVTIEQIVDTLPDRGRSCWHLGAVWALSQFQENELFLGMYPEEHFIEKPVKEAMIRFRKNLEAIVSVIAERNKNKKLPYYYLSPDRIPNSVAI
# Text: as §1
# 5'-lipoxygenase Mylari, B.L., et al, J. Med.
# [23] = target: Clostridium histolyticum Collagenase Type II; assay: Commercial collagenase type II; type: biochemical; conditions: Table IX; commercial enzyme preparation
# Text: 4. Collagenase II, Clostridium histolyticum, cartilage collagen.
# [24] = test system: urinary excretion of calcium, magnesium, phosphorus; conditions: in the diet at 3 mg/day; cited from earlier work
# T1 sequence (P18242 65-410): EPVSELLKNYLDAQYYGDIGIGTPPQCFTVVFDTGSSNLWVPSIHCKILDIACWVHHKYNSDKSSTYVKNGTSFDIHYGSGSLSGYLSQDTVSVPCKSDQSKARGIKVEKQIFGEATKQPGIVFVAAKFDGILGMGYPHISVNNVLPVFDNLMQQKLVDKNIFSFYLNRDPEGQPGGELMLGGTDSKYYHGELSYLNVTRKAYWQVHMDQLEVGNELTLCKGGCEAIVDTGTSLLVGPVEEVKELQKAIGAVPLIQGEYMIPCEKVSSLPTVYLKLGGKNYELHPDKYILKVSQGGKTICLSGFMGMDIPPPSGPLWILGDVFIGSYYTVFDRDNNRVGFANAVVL
# T4 sequence (P07339 65-412): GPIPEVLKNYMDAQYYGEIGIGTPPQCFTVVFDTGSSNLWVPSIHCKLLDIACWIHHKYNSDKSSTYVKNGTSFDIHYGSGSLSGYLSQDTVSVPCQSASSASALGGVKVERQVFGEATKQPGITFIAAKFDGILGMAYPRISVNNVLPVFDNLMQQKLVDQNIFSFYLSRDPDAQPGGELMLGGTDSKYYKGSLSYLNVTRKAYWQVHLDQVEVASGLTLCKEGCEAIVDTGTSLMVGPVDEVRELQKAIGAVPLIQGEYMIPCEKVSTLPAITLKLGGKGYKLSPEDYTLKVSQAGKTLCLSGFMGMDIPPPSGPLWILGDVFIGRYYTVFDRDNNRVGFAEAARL
# T2 sequence (P24268 65-407): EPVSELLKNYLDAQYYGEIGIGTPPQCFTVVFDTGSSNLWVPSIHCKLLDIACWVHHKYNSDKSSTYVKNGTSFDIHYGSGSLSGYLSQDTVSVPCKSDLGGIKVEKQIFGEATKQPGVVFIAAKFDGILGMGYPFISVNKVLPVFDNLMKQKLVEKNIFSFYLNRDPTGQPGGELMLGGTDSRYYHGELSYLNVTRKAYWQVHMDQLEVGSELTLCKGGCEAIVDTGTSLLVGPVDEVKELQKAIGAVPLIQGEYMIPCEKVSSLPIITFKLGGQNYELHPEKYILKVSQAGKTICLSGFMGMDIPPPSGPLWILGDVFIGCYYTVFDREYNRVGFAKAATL
structure (smiles),measurement,setting,value
"C[N+](C)(C)[BH2-]C#N [Compound 2, Trimethylamine-cyanoborane]",LD50 at 336 h,in vivo,70 mg/kg
same,Anti-inflammatory,Cf1 male mice [1],42 % Control
same,Anti-Inflammatory Activity Sprague Dawley Rats,Sprague Dawley Rats,65 % Control
same,Writhing,Cf1 male mice [2],18 % Control
same,Anti-arthritic,Sprague Dawley male rats [3],4 % Control
same,Anti-pleurisy,Sprague Dawley male rats [4],65 % Control
same,Mouse Liver Acid Phosph.,"Acid phosphatase [5]; 5 × 10^-6 M, N=6, 5 µM",69 + 4 % Control
same,IC50,Acid phosphatase [5],3.51 µM
same,activity at 5 µM,"Cathepsin D [6]; pH 5, read-out: Mouse Liver Cathep.",6%
same,IC50,Cathepsin D [6],0.72 µM
same,Rat PMNs Acid Phoph.,Acid phosphatase [7],35 + 5 % Control
same,activity at 5 µM,Cathepsin [8],4%
same,PMNs cAMP,cAMP,245 % Control
same,IC50,Prostaglandin synthetase,5.9 µM
same,Hepatic Oxidative Phosphorylation Succinate State 3,[9],51 + 20 % Control
same,Hepatic Oxidative Phosphorylation Succinate State 4,[9],133 + 20 % Control
same,Hepatic Oxidative Phosphorylation alpha-Ketoglutrate State 3,[9],41 + 9 % Control
same,Hepatic Oxidative Phosphorylation alpha-Ketoglutrate State 4,[9],85 + 21 % Control
same,IC50,Acid phosphatase [10],1.05 µM
same,IC50,Aryl sulphatase [11],9.29 µM
same,IC50,Trypsin [12],1.41 µM
same,IC50,Elastase [13],1.35 µM
same,IC50,[14],5.88 µM
same,IC50,Trypsin [15],3.98 µM
same,IC50,Cathepsin D [16],2.01 µM
same,IC50,Acid phosphatase [17],15.9 µM
same,IC50,Aryl sulphatase [18],8.87 µM
same,IC50,Elastase [19],3.29 µM
same,IC50,[20],4.26 µM
same,IC50,Cathepsin [21],77.1 µM
same,Hydroxyproline serum,Hydroxyproline,71.7 % Control
same,Hydroxyproline urine,Hydroxyproline,42.5 % Control
same,Calcium serum,Calcium,109.7 % Control
same,Calcium urine,Calcium,50.8 % Control
same,Phosphorus serum,Phosphorus,81.6 % Control
same,Phosphorus urine,Phosphorus,39.6 % Control
same,response vs control in vivo,Cf1 male mice [22],18%
"C[NH+](C)[BH2-]C#N [Compound 10, Dimethylamine-cyanoborane]",Anti-Inflammatory Activity Sprague Dawley Rats,Sprague Dawley Rats,61 % Control
same,IC50,Acid phosphatase [5],8.9 µM
same,IC50,Cathepsin D [6],3.2 µM
same,IC50,5'-lipoxygenase,22.9 µM
same,IC50,Acid phosphatase [10],1.13 µM
same,IC50,Aryl sulphatase [11],9 µM
same,IC50,Trypsin [12],2.44 µM
same,IC50,Elastase [13],2.53 µM
same,IC50,[14],5.92 µM
same,IC50,Trypsin [15],6.43 µM
same,IC50,Cathepsin D [16],1.28 µM
same,IC50,Acid phosphatase [17],8.7 µM
same,IC50,Aryl sulphatase [18],7.91 µM
same,IC50,Elastase [19],3.36 µM
same,IC50,[20],5.58 µM
same,IC50,[23],106 µM
same,IC50,Cathepsin [21],53.8 µM
same,response vs control in vivo,Cf1 male mice [22],14.7%
O.O.O.O.O.O.O.O.O.O.[Na+].[Na+].[O-]B1OB2OB([O-])OB(O1)O2 [sodium borate],"urinary excretion of calcium, magnesium and perhaps phosphorus",[24],"blocks the urinary excretion of calcium, magnesium and perhaps phosphorus"
"C[B-](C#N)(C#N)[N+](C)(C)C [Compound 16, Trimethylamine-methyldicyanoborane]",IC50,Acid phosphatase [10],1.1 µM
same,IC50,Aryl sulphatase [11],8.48 µM
same,IC50,Trypsin [12],1.62 µM
same,IC50,Elastase [13],2.02 µM
same,IC50,[14],3.05 µM
same,IC50,Trypsin [15],3.35 µM
same,IC50,Elastase [19],3.6 µM
same,IC50,[20],9.29 µM
same,IC50,[23],110 µM
same,IC50,Cathepsin [21],65.2 µM
same,response vs control in vivo,Cf1 male mice [22],33.9%
